According to patent US20250206759A1, “FUSED RING COMPOUND, PHARMACEUTICAL COMPOSITION CONTAINING SAME, AND USE OF FUSED RING COMPOUND” (CHENGDU HYPERWAY PHARMACEUTICALS CO., LTD., priority 2022, published 2025):
Like-named read-outs stand apart in the source and are kept apart here. Values belong to the compound of their own block, whether it stands above or below them.

Tests used:
[1] = Pharmacokinetics of compounds in rats (oral); type: in vivo, SD rats; conditions: male SD rats
Protocol: Male SD rats were purchased from Shanghai SIPPR-Bk Lab Animal Co., Ltd. Each test compound was administered orally (3 rats per group) once to SD rats for pharmacokinetic study. The test compounds were prepared on the day of administration. The test compounds were suspended in 5% DMSO+95% saline, and then vortexed for 2 min and ultrasonicated for 5 min to prepare the administration system. The animals were fasted for 10-14 h before oral administration, and the feeding was resumed 4 h after administration. After oral administration by gavage, pharmacokinetic samples were collected from SD rats through the jugular vein. The collection time points were: before administration, 15 min, 30 min, 1 h, 2 h, 4 h, 6 h, 8 h and 24 h after administration. Three whole blood samples were collected at each time point, with a collection volume of about 0.2 mL, and anticoagulated with sodium heparin. After blood samples were collected, they were immediately placed on ice and centrifuged to separate plasma within 1 hour (centrifugation conditions: 6800 rpm, 6 min, 2-8° C.). The collected plasma was stored in a −80° C. refrigerator before analysis.

[2] = test system: KRas G12D-mediated ERK phosphorylation; assay: Inhibition of KRas G12D-mediated ERK phosphorylation in AGS cells; type: cell-based; conditions: read-out: AGS-pERK IC50
Protocol: Day 1: AGS cells were seeded into 384-well cell culture plates and cultured overnight in a 37° C., 5% CO2 incubator.
Day 2: The compounds were added to the plates using Echo550 and incubated for 3 h in a 37° C., 5% CO2 incubator. Then cells were fixed with paraformaldehyde, permeated with methanol, and blocked with the blocking solution. Finally, a mixed solution of primary antibodies (rabbit anti pERK, mouse anti GAPDH) was added, and the mixture was incubated at 4° C. overnight.
Day 3: The mixed solution of primary antibodies was discarded, and a mixed solution of secondary antibodies (goat anti rabbit 800CW, goat anti mouse 680RD) was added. The mixture was incubated at room temperature in the dark. Finally, the cell culture plate was washed with PBST, and then inverted for 1 minute of centrifugation. The fluorescence signal values were read with Odyssey CLx.
ERK phosphorylation was calculated according to the following formula: […]
X: log value of compound concentration.
Y: average value of relative expression of p-ERK between replicate wells.

[3] = male, SD, rat, plasma, po, 10 mg/kg, 10 mg/kg, read-out: AUC
[4] = male, SD, rat, plasma, po, 10 mg/kg, 10 mg/kg, read-out: Cmax
[5] = male, SD, rat, plasma, po, 100 mg/kg, 100 mg/kg, read-out: AUC
[6] = male, SD, rat, plasma, po, 100 mg/kg, 100 mg/kg, read-out: Cmax

Compound: Oc1cc(-c2ncc3c(N4CC5CCC(C4)N5)nc(OCC45CCCN4C(c4ccc(C(F)(F)F)cc4)CC5)nc3c2F)c2ccccc2c1 (stereo not shown) [Example 170]
AUC [1, 3]: 533 ng·h/mL | Cmax [1, 4]: 39 ng/mL

Compound: C#Cc1c(F)ccc2cc(O)cc(-c3ncc4c(N5CC6CCC(C5)N6)nc(OCC56CCCN5[C@@H](c5ccc(F)cc5)CC6)nc4c3F)c12 (single isomer, unassigned) [Example 196]
IC50 ([2]; Homo sapiens, AGS): 1.4 nM

AUC ([1]; 10 mg/kg): 410 ng·h/mL | Cmax ([1]; 10 mg/kg): 32 ng/mL
Compound: Oc1cc(-c2ncc3c(N4C[C@H]5CC[C@@H](C4)N5)nc(OCC45CCC(c6ccc(OC(F)(F)F)cc6)N4CC4(CC4)C5)nc3c2F)c2ccccc2c1 (stereo partly drawn) [Example 143, 4-(4-((1R,5S)-3,8-diazabicyclo[3.2.1]octan-3-yl)-8-fluoro-2-((5′-(4-(trifluoromethoxy)phenyl)dihydro-1′H,3′H-spiro[cyclopropan-1,2′-pyrrolizin]-7a′(5′H)-yl)methoxy]pyrido[4,3d]pyrimidin-7-yl)naphthalen-2-ol]

IC50 [2]: 12 nM
Compound: 4-(4-((1R,5S)-3,8-diazabicyclo[3.2.1]octan-3-yl)-2-((3-(1,3-dihydroisobenzofuran-5-yl-1,1,3,3-d4)tetrahydro-1H-pyrrolizin-7a(5H)-yl)methoxy)-8-fluoropyridin[4,3-d]pyrimidin-7-yl)naphthalen-2-ol [Example 148]

Compound: Oc1cc(-c2ncc3c(N4CC5CCC(C4)N5)nc(OCC45CCCN4[C@@H](c4ccc(F)c(F)c4)CC5)nc3c2F)c2c(F)c(F)ccc2c1 (mixture of isomers) [Example 224]
IC50 ([2]; Homo sapiens, AGS): 0.7 nM

Compound: Oc1cc(-c2ncc3c(N4CC5CCC(C4)N5)nc(OCC45CCCN4[C@@H](c4ccc(C(F)(F)F)cc4)CC5)nc3c2F)c2c(F)c(F)ccc2c1 (single isomer, unassigned) [Example 202]
IC50 ([2]; Homo sapiens, AGS): 1.8 nM

Compound: COc1ccc([C@H]2CCC3(COc4nc(N5CC6CCC(C5)N6)c5cnc(-c6cc(O)cc7ccc(F)c(F)c67)c(F)c5n4)CCCN23)cc1OC(F)(F)F (stereo partly shown) [Example 216]
IC50 ([2]; Homo sapiens, AGS): 1.6 nM

Compound: Oc1cc(-c2ncc3c(N4CC5CCC(C4)N5)nc(OCC45CCCN4[C@@H](c4ccc6c(c4)COC6)CC5)nc3c2F)c2c(F)c(F)ccc2c1 (mixture of isomers) [Example 217]
IC50 ([2]; Homo sapiens, AGS): 1.3 nM

Compound: Oc1cc(-c2ncc3c(N4CC5CCC(C4)N5)nc(OCC45CCCN4[C@@H](c4ccc(C(F)(F)F)c(C(F)(F)F)c4)CC5)nc3c2F)c2c(F)c(F)ccc2c1 (mixture of isomers) [Example 219]
IC50 ([2]; Homo sapiens, AGS): 6.2 nM

Compound: Oc1cc(-c2ncc3c(N4CC5CCC(C4)N5)nc(OCC45CCCN4C(c4ccc(-c6ccc(F)cc6)cc4)CC5)nc3c2F)c2c(F)c(F)ccc2c1 (stereo not shown) [Example 190]
AUC [1, 5]: 939 ng·h/mL | Cmax [1, 6]: 66 ng/mL

Compound: Nc1ccc(OC(F)(F)F)c(-c2ncc3c(N4CC5CCC(C4)N5)nc(OC[C@]45CCCN4C(c4ccc6c(c4)OC(F)(F)O6)CC5)nc3c2F)c1 (stereo partly drawn) [Example 163, 3-(4-((1R,5S)-3,8-diazabicyclo[3.2.1]octan-3-yl)-2-((3-(2,2-difluorobenzo[d][1,3]dioxy-5-yl)tetrahydro-1H-pyrrolizin-7a(5H)-yl)methoxy)-8-fluoropyridin[4,3d]pyrimidin-7-yl)-4-(trifluoromethoxy)]
AUC [1, 5]: 2750 ng·h/mL | Cmax [1, 6]: 388 ng/mL

Compound: [2H]C1([2H])OCc2cc(C3CCC4(COc5nc(N6C[C@H]7CC[C@@H](C6)N7)c6cnc(-c7cc(O)cc8ccc(F)c(F)c78)c(F)c6n5)CCCN34)ccc21 (stereo partly drawn) [Example 151, 4-(4-((1R,5S)-3,8-diazabicyclo[3.2.1]octan-3-yl)-2-((3-(1,3-dihydroisobenzofuran-5-yl-1,1-d2)tetrahydro-1H-pyrrolizin-7a(5H)-yl)methoxy)-8-fluoropyrido[4,3-d]pyrimidin-7-yl)-5,6-difluoronaphthalen-2-ol]
IC50 ([2]; Homo sapiens, AGS): 7.6 nM

Compound: Oc1cc(-c2ncc3c(N4CC5CCC(C4)N5)nc(OCC45CCCN4[C@@H](c4ccc(C(F)(F)F)c(Cl)c4)CC5)nc3c2F)c2c(F)c(F)ccc2c1 (mixture of isomers) [Example 215]
AUC [1, 5]: 471 ng·h/mL | Cmax [1, 6]: 128 ng/mL

Compound: Oc1cc(-c2ncc3c(N4CC5CCC(C4)N5)nc(OCC45CCCN4C(c4ccc(OC(F)(F)F)cc4)CC5)nc3c2F)c2c(F)c(F)ccc2c1 (stereo not shown) [Example 210]
AUC [1, 5]: 246 ng·h/mL | Cmax [1, 6]: 145 ng/mL

Compound: Oc1cc(-c2ncc3c(N4CC5CCC(C4)N5)nc(OCC45CCCN4[C@@H](c4ccc6ccccc6c4)CC5)nc3c2F)c2c(F)c(F)ccc2c1 (mixture of isomers) [Example 218]
IC50 ([2]; Homo sapiens, AGS): 2.4 nM

AUC ([1]; 10 mg/kg): 94 ng·h/mL | Cmax ([1]; 10 mg/kg): 21 ng/mL
Compound: Oc1cc(-c2ncc3c(N4C[C@H]5CC[C@@H](C4)N5)nc(OCC45CCCN4C(c4ccc(C6=CCOCC6)cc4)CC5)nc3c2F)c2ccccc2c1 (stereo partly drawn) [Example 45, 4-(4-((1R,5S)-3,8-diazabicyclo[3.2.1]octan-3-yl)-2-((3-(4-(3,6-dihydro-2H-pyran-4-yl)phenyl)tetrahydro-1H-pyrrolidin-7a(5H)-yl)methoxy)-8-fluoropyrido[4,3-d]pyrimidin-7-yl)naphthalen-2-ol]

IC50 [2]: 6 nM
Compound: C#Cc1c(F)ccc2cc(O)cc(-c3ncc4c(N5C[C@H]6CC[C@@H](C5)N6)nc(OCC56CCCN5C(c5ccc(OC)cc5)CC6)nc4c3F)c12 (stereo partly drawn) [Example 52, 4-(4-((1R,5S)-3,8-diazabicyclo[3.2.1]octan-3-yl)-8-fluoro-2-((3-(4-methoxyphenyl)tetrahydro-1H-pyrrolidin-7a(5H)-yl)methoxy)pyrido[4,3-d]pyrimidin-7-yl)-5-ethynyl-6-fluoronaphthalen-2-ol]

Compound: C#Cc1c(F)ccc2cc(O)cc(-c3ncc4c(N5CC6CCC(C5)N6)nc(OCC56CCCN5C(c5ccc7c(c5)COC7)CC6)nc4c3F)c12 (stereo not shown) [Example 178]
IC50 ([2]; Homo sapiens, AGS): 3.8 nM

Compound: COc1ccc(C2CCC3(COc4nc(N5CC6CCC(C5)N6)c5cnc(-c6cc(O)cc7ccc(F)c(F)c67)c(F)c5n4)CCCN23)cc1OC (stereo not shown) [Example 113]
IC50 ([2]; Homo sapiens, AGS): 15 nM

Compound: Oc1cc(-c2ncc3c(N4CC5CCC(C4)N5)nc(OCC45CCCN4C(c4ccc6c(c4)OCO6)CC5)nc3c2F)c2c(F)c(F)ccc2c1 (stereo not shown) [Example 114]
IC50 ([2]; Homo sapiens, AGS): 14 nM

Compound: Nc1ccc(C(F)(F)F)c(-c2ncc3c(N4CC5CCC(C4)N5)nc(OCC45CCCN4[C@@H](c4ccc6c(c4)OC(F)(F)O6)CC5)nc3c2F)c1 (mixture of isomers) [Example 234]
AUC [1, 5]: 1190 ng·h/mL | Cmax [1, 6]: 182 ng/mL

Compound: Oc1cc(-c2ncc3c(N4CC5CCC(C4)N5)nc(OCC45CCCN4C(c4ccc(OC(F)(F)F)cc4)CC5)nc3c2F)c2ccccc2c1 (stereo not shown) [Example 118]
AUC [1, 3]: 224 ng·h/mL | Cmax [1, 4]: 31 ng/mL | AUC [1, 5]: 1290 ng·h/mL | Cmax [1, 6]: 115 ng/mL

Compound: Nc1cc(Cl)c(C(F)(F)F)c(-c2ncc3c(N4CC5CCC(C4)N5)nc(OCC45CCCN4C(c4ccc(F)c(F)c4)CC5)nc3c2F)c1 (stereo not shown) [Example 244]
IC50 ([2]; Homo sapiens, AGS): 6.4 nM

Compound: Cc1cc(N)cc(-c2ncc3c(N4CC5CCC(C4)N5)nc(OCC45CCCN4[C@@H](c4ccc6c(c4)OC(F)(F)O6)CC5)nc3c2F)c1C(F)(F)F (mixture of isomers) [Example 235]
IC50 ([2]; Homo sapiens, AGS): 13 nM

AUC ([1]; 100 mg/kg): 444 ng·h/mL | Cmax ([1]; 100 mg/kg): 113 ng/mL
Compound: Oc1cc(-c2ncc3c(N4C[C@H]5CC[C@@H](C4)N5)nc(OCC45CCCN4C(c4ccc6c(c4)OC(F)(F)O6)CC5)nc3c2F)c2c(F)c(F)ccc2c1 (stereo partly drawn) [Example 140, 4-(4-((1R,5S)-3,8-diazabicyclo[3.2.1]octan-3-yl)-2-((3-(2,2-difluorobenzo[d][1,3]dioxy-5-yl)tetrahydro-1H-pyrrolizin-7a(5H)-yl)methoxy)-8-fluoropyridin[4,3d]pyrimidin-7-yl)-5,6-difluoronaphthalen-2-ol]

Compound: Nc1cc(F)c(C(F)(F)F)c(-c2ncc3c(N4CC5CCC(C4)N5)nc(OCC45CCCN4C(c4ccc6c(c4)OC(F)(F)O6)CC5)nc3c2F)c1 (stereo not shown) [Example 237]
AUC [1, 5]: 1510 ng·h/mL | Cmax [1, 6]: 362 ng/mL

Compound: Oc1cc(-c2ncc3c(N4CC5CCC(C4)N5)nc(OCC45CCCN4C(c4ccc6c(c4)OC(F)(F)O6)CC5)nc3c2F)c2ccccc2c1 (stereo not shown) [Example 132]
AUC [1, 3]: 240 ng·h/mL | Cmax [1, 4]: 29 ng/mL

Compound: COc1cc([C@H]2CCC3(COc4nc(N5CC6CCC(C5)N6)c5cnc(-c6cc(O)cc7ccc(F)c(F)c67)c(F)c5n4)CCCN23)ccc1C(F)(F)F (mixture of isomers) [Example 228]
IC50 ([2]; Homo sapiens, AGS): 1.9 nM

Compound: Oc1cc(-c2ncc3c(N4CC5CCC(C4)N5)nc(OCC45CCCN4C(c4ccc6occc6c4)CC5)nc3c2F)c2ccccc2c1 (stereo not shown) [Example 131]
AUC [1, 3]: 57 ng·h/mL | Cmax [1, 4]: 13 ng/mL

AUC [1, 3]: 52 ng·h/mL | Cmax [1, 4]: 21 ng/mL
Compound: Oc1cc(-c2ncc3c(N4CC5CCC(C4)C5(F)F)nc(OC[C@@]45CCCN4C[C@H](F)C5)nc3c2F)c2c(F)c(F)ccc2c1 [Example 86]
